In US10391095B2, “DNA-PK inhibitors” (Vertex Pharmaceuticals Incorporated, priority 2012, dated 2019):

Biological target: DNA-PK (Homo sapiens, UniProt P78527)
Experiment: DNA-PK inhibition assay (radiometric, 33P-ATP)
Assay type: biochemical
Details: 100 μM ATP, competitive tight-binding fit
Procedure, shortened: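 33P transfer from 100 µM ATP to a DNA-PK peptide (0.8 mg/mL) is measured after 45 min, using about 6 nM enzyme activated by 10 µg/mL sheared dsDNA (HEPES pH 7.5, MgCl2, DTT). Filter-bound counts fitted to a competitive tight-binding inhibition model give Ki.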

Ki [µM] | SMILES
< 0.03 | CNC(=O)c1ccnc2c([C@H](C)CNc3cc(-c4cc(C)nc(OC)c4)ncn3)cccc12 [Compound 863]
< 0.03 | COc1nc(N)ncc1[C@H](C)CNc1cc(-c2ccc(C)nc2)ncn1 [Compound 475]
< 0.03 | COc1ccccc1CCNc1cc(-c2cnc3c(ccn3CC3CC3)c2)ncn1 [Compound 40]
< 0.03 | Cc1ccc(-c2cc(NCC(C)c3ccccc3OCC3CC3)ncn2)cn1 (centres unmarked) [Compound 186]
< 0.03 | CC(CNc1cc(-c2cnc3[nH]ncc3c2)ncn1)c1ccccc1OC1COC1 (centres unmarked) [Compound 214]
< 0.03 | CC(CNc1cc(-c2cnc3c(cnn3C3CCN(C)CC3)c2)ncn1)c1ccccc1O (centres unmarked) [Compound 151]
< 0.03 | Cc1ccc(-c2cc(NCC(C)c3cccc4scnc34)ncn2)cn1 (centres unmarked) [Compound 333]
< 0.03 | CNC(=O)c1c(F)cnc2c([C@H](C)CNc3cc(-c4cnc(C)c(F)c4)ncn3)cccc12 [Compound 973]
< 0.03 | COc1ccccc1[C@H](C)CNc1cc(-c2ccc(N(C)C)nc2)ncn1 [Compound 255]
< 0.03 | CCOc1ccc(-c2cc(NC[C@@H](C)c3cccc4c(C(=O)NC)ccnc34)ncn2)cn1 [Compound 933]
< 0.03 | CCOC(=O)c1ccc(-c2cc(NC[C@@H](C)c3cccc4c(C(=O)NC)ccnc34)ncn2)o1 [Compound 795]
< 0.03 | Cc1ccc(-c2cc(NC[C@@H](C)c3ccnc4c3OCCC4)ncn2)cn1 [Compound 535]
< 0.03 | COc1ccccc1CCNc1cc(-c2ccc(C)nc2)ncn1 [Compound 11]
< 0.03 | CNC(=O)c1ccc([C@H](C)CNc2cc(-c3ccc4scnc4c3)ncn2)c(OC)c1 [Compound 316]
< 0.03 | COc1ccccc1CCNc1cc(-c2cnc3c(cnn3C)c2)ncn1 [Compound 42]
< 0.03 | CNc1ncc(-c2cc(NC[C@@H](C)c3ccnc4c3OCC4)ncn2)cn1 [Compound 430]
< 0.03 | CNC(=O)c1ccnc2c([C@H](C)CNc3cc(-c4ccc5c(c4)CCO5)ncn3)cccc12 [Compound 842]
< 0.03 | CNC(=O)c1ccc([C@H](C)CNc2cc(-c3ccc4ncccc4c3)ncn2)c(OC)c1 [Compound 454]
< 0.03 | C[C@H](CNc1cc(-c2ccc3ccncc3c2)ncn1)c1ccnc2c1OCCO2 [Compound 541]
< 0.03 | C[C@H](CNc1cc(-c2ccc(NC3CC3)nc2)ncn1)c1ccnc2c1OCCO2 [Compound 465]
< 0.03 | CNC(=O)c1ccnc2c([C@H](C)CNc3cc(-c4ccnc(CO)c4)ncn3)cccc12 [Compound 890]
< 0.03 | CNC(=O)c1ccnc2c([C@H](C)CNc3cc(-c4ccc(N(C)CCC(C)(C)O)nc4)ncn3)cccc12 [Compound 717]
< 0.03 | CNC(=O)c1ccnc2c([C@H](C)CNc3cc(-c4cccnc4)ncn3)cccc12 [Compound 612]
< 0.03 | CC(CNc1cc(-c2ccc(N3CCN(C)CC3)nc2)ncn1)c1ccccc1OC(F)F (centres unmarked) [Compound 63]
< 0.03 | C[C@H](CNc1cc(-c2cnc(NCCO)nc2)ncn1)c1ccnc2c1OCCO2 [Compound 457]
< 0.03 | CNC(=O)c1ccc(C(C)CNc2cc(-c3cnc4c(cnn4CCN4CCCC4=O)c3)ncn2)c(OC)c1 (centres unmarked) [Compound 239]

Ki [µM] | SMILES
< 0.03 | CNC(=O)c1ccnc2c([C@H](C)CNc3cc(-c4cnc5c(cnn5CCO)c4)ncn3)cccc12 [Compound 580]
< 0.03 | COc1cc(C(N)=O)ccc1C(C)CNc1cc(-c2ccc(N3CCN(C(C)=O)CC3)nc2)ncn1 (centres unmarked) [Compound 131]
< 0.03 | CNC(=O)c1ccnc2c([C@H](C)CNc3cc(-c4ccc(NCC5CC5)nc4)ncn3)cccc12 [Compound 644]
< 0.03 | CCN1CCCC1CNc1ccc(-c2cc(NC[C@@H](C)c3cccc4c(C(=O)NC)ccnc34)ncn2)cn1 (single isomer, unassigned) [Compound 704]
< 0.03 | CNC(=O)c1c(F)cnc2c([C@H](C)CNc3cc(-c4ccc(NC5CC5)nc4)ncn3)cccc12 [Compound 921]
< 0.03 | Cc1ccc(-c2cc(NCCc3ccccc3OC3CC3)ncn2)cn1 [Compound 86]
< 0.03 | COc1cc(C(=O)NC2CCCC2)ccc1C(C)CNc1cc(-c2ccc(C)nc2)ncn1 (centres unmarked) [Compound 159]
< 0.03 | COc1ccccc1[C@H](C)CNc1cc(-c2ccnc(NCCCO)c2)ncn1 [Compound 206]
< 0.03 | CNCCCNc1ccc(-c2cc(NC[C@@H](C)c3ccccc3OC)ncn2)cn1 [Compound 201]
< 0.03 | Cc1ccc(-c2cc(NCC(C)c3cccc4c3OC(C)(C)C4)ncn2)cn1 (centres unmarked) [Compound 85]
< 0.03 | CNC(=O)c1ccnc2c([C@H](C)CNc3cc(-c4cnc(C)nc4)ncn3)ccc(F)c12 [Compound 622]
< 0.03 | C=C(C)CNc1ccc(-c2cc(NC[C@@H](C)c3ccc(C(=O)NC)cc3OC)ncn2)cn1 [Compound 389]
< 0.03 | CNC(=O)c1ccnc2c([C@H](C)CNc3cc(-c4ccc(C(=O)O)nc4)ncn3)cccc12 [Compound 673]
< 0.03 | CCOc1cc(F)ccc1[C@H](C)CNc1cc(-c2ccc(C)nc2)ncn1 [Compound 103]
< 0.03 | CNC(=O)c1c(F)cnc2c([C@H](C)CNc3cc(-c4ccc(C5CC5)nc4)ncn3)cccc12 [Compound 857]
< 0.03 | CNC(=O)c1ccnc2c([C@H](C)CNc3cc(-c4cnc(C5CCOCC5)nc4)ncn3)cccc12 [Compound 831]
< 0.03 | CNC(=O)c1ccnc2c([C@H](C)CNc3cc(-c4ccc(NCCC(C)O)nc4)ncn3)cccc12 (some centres unmarked) [Compound 709]
< 0.03 | C[C@H](CNc1cc(-c2cc(C(F)(F)F)c3ncccc3c2)ncn1)c1ccnc2c1OCCO2 [Compound 557]
< 0.03 | COc1ccccc1CCNc1cc(-c2ccc(N3CCN(C(C)=O)CC3)nc2)ncn1 [Compound 16]
< 0.03 | CNC(=O)c1ccnc2c([C@H](C)CNc3cc(-c4ccc(OC5COC5)cc4)ncn3)cccc12 [Compound 748]
< 0.03 | CNC(=O)c1ccnc2c([C@H](C)CNc3cc(-c4cnc(C)nc4)ncn3)cc(F)cc12 [Compound 637]
< 0.03 | COCCn1ncc2cc(-c3cc(NCC(C)c4ccc(C(=O)NCC(F)(F)F)cc4OC)ncn3)cnc21 (centres unmarked) [Compound 220]
< 0.03 | CNC(=O)c1ccnc2c([C@H](C)CNc3cc(-c4cnc(C)s4)ncn3)ccc(F)c12 [Compound 827]
< 0.03 | Cc1ccc(-c2cc(NC[C@@H](C)c3ccccc3OC3CC3)ncn2)cn1 [Compound 107]
< 0.03 | CNC(=O)c1ccnc2c([C@H](C)CNc3cc(-c4cc(F)c(OC)c(F)c4)ncn3)cccc12 [Compound 824]
< 0.03 | CC(CNc1cc(-c2cnc3c(cnn3C3CCN(C)CC3)c2)ncn1)c1cccc2cccnc12 (centres unmarked) [Compound 237]

Ki [µM] | SMILES
< 0.03 | CCOc1cc(-c2cc(NC[C@@H](C)c3cccc4c(C(=O)NC)ccnc34)ncn2)cnc1C [Compound 875]
< 0.03 | COc1ccccc1[C@H](C)CNc1cc(-c2ccnc(NCCO)c2)ncn1 [Compound 119]
< 0.03 | CC(CNc1cc(-c2ccc(C(=O)NCCC#N)cc2)ncn1)c1ccnc2cccnc12 (centres unmarked) [Compound 431]
< 0.03 | CNC(=O)c1ccnc2c([C@H](C)CNc3cc(-c4cnc5c(c4)OCCN5)ncn3)cccc12 [Compound 817]
< 0.03 | COc1ccccc1CCNc1cc(-c2cnc3c(cnn3C3CCN(C)CC3)c2)ncn1 [Compound 82]
< 0.03 | C[C@H](CNc1cc(-c2ccc(N3CCOCC3)nc2)ncn1)c1ccnc2c1OCCO2 [Compound 522]
< 0.03 | CNC(=O)c1ccnc2c([C@H](C)CNc3cc(-c4cnc(C)c(C)c4)ncn3)cccc12 [Compound 870]
< 0.03 | C[C@H](CNc1cc(-c2ccc(C(=O)NCCC#N)cc2)ncn1)c1ccnc2c1OCC2 [Compound 432]
< 0.03 | COc1ccccc1[C@H](C)CNc1cc(-c2cnc3c(cnn3CC(O)CO)c2)ncn1 (single isomer, unassigned) [Compound 149]
< 0.03 | COc1ccccc1[C@H](C)CNc1cc(-c2cnc3c(cnn3C3CCN(C)CC3)c2)ncn1 [Compound 83]
< 0.03 | COc1cscc1C(C)CNc1cc(-c2cnc3c(cnn3C3CCN(C)CC3)c2)ncn1 (centres unmarked) [Compound 228]
< 0.03 | CNC(=O)c1ccnc2c([C@H](C)CNc3cc(N4CCn5c(C6CCN(C)CC6)cnc5C4)ncn3)cccc12 [Compound 826]
< 0.03 | Cc1ncc(-c2cc(NC[C@@H](C)c3cccc4cc(F)cnc34)ncn2)cn1 [Compound 667]
< 0.03 | CCc1ncc(-c2cc(NC[C@@H](C)c3cccc4c(C(=O)NC)ccnc34)ncn2)cn1 [Compound 829]
< 0.03 | C[C@H](CNc1cc(-c2cnc3ccccc3c2)ncn1)c1ccnc2c1OCCO2 [Compound 559]
< 0.03 | CNC(=O)c1ccnc2c([C@H](C)CNc3cc(-c4cnc(C)s4)ncn3)cccc12 [Compound 778]
< 0.03 | CNC(=O)c1ccc(C(C)CNc2cc(-c3cnc4c(cnn4CC(C)(C)O)c3)ncn2)c(OC)c1 (centres unmarked) [Compound 274]
< 0.03 | CNC(=O)c1ccnc2c([C@H](C)CNc3cc(-c4ccnc(NC5CC5)c4)ncn3)cccc12 [Compound 894]
< 0.03 | CNC(=O)c1ccc(C(C)CNc2cc(-c3ccc(OCC4CC4)nc3)ncn2)c(OC)c1 (centres unmarked) [Compound 326]
< 0.03 | CNC(=O)c1c(NC)cnc2c([C@H](C)CNc3cc(-c4ccc(C)nc4)ncn3)cccc12 [Compound 764]
< 0.03 | CNC(=O)c1ccnc2c([C@H](C)CNc3cc(-c4ccc(N5CCN(CC(F)F)CC5)nc4)ncn3)cccc12 [Compound 756]
< 0.03 | CNC(=O)c1ccc(C(C)CNc2cc(-c3ccc(OCCSC)nc3)ncn2)c(OC)c1 (centres unmarked) [Compound 323]
< 0.03 | CC(CNc1cc(-c2cnc3c(cnn3CCO)c2)ncn1)c1ccnc2ccoc12 (centres unmarked) [Compound 429]
< 0.03 | CNC(=O)c1c(F)cnc2c([C@H](C)CNc3cc(-c4ccc(C(C)C)nc4)ncn3)cccc12 [Compound 858]
< 0.03 | CNC(=O)c1ccnc2c([C@H](C)CNc3cc(-c4ccc(-c5nnnn5C)nc4)ncn3)cccc12 [Compound 958]
